Columns and labels:
[1] = system: memory-impaired aged rats; details: cited from earlier work
[2] = aged rats, chronic subcutaneous 100 mg/kg/day; cited from earlier work
aged-impaired (AI) rats = experiment: eight-arm Radial Arm Maze (RAM) task with one-hour delay, spatial memory retention; type: in vivo, rat

SMILES | performance in a memory test ([1]; chronic subcutaneous 100 mg/kg/day) | blood total valproate level [2] [µg/ml plasma] | effective in reducing the number of errors, on its own (aged-impaired (AI) rats; valproate subcutaneous 25 mg/kg) | effective in reducing the number of errors, on its own (aged-impaired (AI) rats; valproate subcutaneous 50 mg/kg) | effective in reducing the number of errors, on its own (aged-impaired (AI) rats; valproate subcutaneous 100 mg/kg) | treatment of cognitive impairment ([1]; chronic subcutaneous 50 mg/kg/day)
CCCC(CCC)C(=O)[O-].[Na+] [sodium valproate] | significantly improved | 10 | – | – | – | –
CCCC(CCC)C(=O)O [valproate, 2-propylpentanoate] | – | – | not | not | effective | not effective
